Reference: patent US20050191668A1, “Methods of using peroxisome proliferator-activated receptor alpha target genes” (priority 2004, published 2005)

What was measured:
[1] = test system: murine FIAF (fasting induced adipose factor); settings: PPARα wild type mouse liver cells; cited from earlier work
[2] = test system: Pa13 gene; assay: Pa13 gene expression by real-time RT-PCR in primary skeletal muscle cells; format: cell-based, human; settings: about 18-20 hours, vehicle control = 100
From the text: (§1) Human hepatocyte HuH7 cells, which are epithelial cells of liver, were obtained from Japan Health Science Research Resources Bank (Osaka, Japan). Human primary adipocytes, which are connective tissue cells specialized for the synthesis and storage of fat, were obtained from Zen-Bio, Inc (Research Triangle Park, NC). Human primary skeletal muscle cells (SKMC) were obtained from Cambrex Bio Science (Walkersville, Md.). PPARα agonists, Wy14643 (Agatha, et al, 2000, Archives of Biochemistry and Biophysics 380:353-359) and fenofibrates were obtained from Cayman Chemical (Ann Arbor, Mich.) and Sigma (St Louis, Mo.), respectively.
(§2) Human HuH7 cells were cultured in Dulbecco's Modified Eagle Medium with 10% Fetal Bovine Serum (Gibco, N.Y.). Cells were treated with charcoal-stripped, delipidated calf serum (5%) (Sigma, St Louis, Mo.) for about 4-18 hours. Then, cells were treated with different concentrations of PPARα agonist (Wy14643 or fenofibrates) for about 20-24 h. Human SKM cells were cultured in Skeletal Muscle Growth Medium (Cambrex Bio Science, Walkersville, Md.), and were treated with different concentrations of PPARα agonist (Wy14643 or fenofibrates) for about 18-20 hours. Human primary adipocytes were cultured in Preadipocyte Medium, (Cat #PM—1, Zen-Bio, Inc., Research Triangle Park, NC), and were treated with different concentrations of PPARα agonist (Wy14643 or fenofibrates) for about 18-20 hours.
(§3) Total RNA was purified from cultured cells following the protocol provided by the manufacturer (Trizon method, Invitrogen Inc. Ca). The polymerase chain reaction (PCR) primers and fluorescent probes (TagMan probes) for Pa9, Pa13, and Pa21 were designed from GenBank sequences of accession numbers W30988, AB000584, and NM_080725, respectively. The primers and probes were designed using the software PrimerDesign (Applied Biosystems, Foster City, Calif.). The PCR primers for Pa9 were SEQ ID NO: 7, (5-[…]) and SEQ ID NO: 8 (5-[…]). […] The PCR primers for Pa13 were SEQ ID NO: 10 (5-[…], T) and SEQ ID NO: 11 (5-[…] T). […] The PCR primers for Pa21 were SEQ ID NO: 13 (5-[…] C) and SEQ ID NO: 14 (5-[…]). […] All primers and probes were synthesized by Keystone Labs (Camarillo, Calif.).
(§4) Reverse transcription (RT) and PCR were conducted in one step using “One-Step RT-PCR Master Mix Reagent” kit (Applied Biosystems, Foster City, Calif.) in ABI PRISM 7700 Sequence Detection System (Applied Biosystems). Each reaction was performed in a total volume of 25 μl containing 40 ng of total RNA. The reaction condition was: 48° C. for 30 minutes, 60° C. for 30 minutes, 94° C. for 5 minutes, followed by 40 cycles of 94° C. for 20 seconds and 60° C. for 1 minute. The primers for 18S ribosomal RNA were developed and provided by Applied Biosystems. The measurement of human 18S ribosomal RNA was used as an internal control for normalization of measuring and loading errors. PCR data were collected by Ct value (the cycle number at which logarithmic PCR plots cross a calculated threshold line) according to the manufacturer's guidelines and the value was used to determine the Δ^Ct (Ct of the target gene minus the Ct of 18S ribosomal RNA controls). Relative mRNA level was calculated using the equation 2^−ΔΔCt as described previously (Heid et al., 1996, Genome Res. 6:986-994).

[3] = test system: Pa13 gene; assay: Pa13 gene expression in SKM cells with siRNA-reduced PPARα expression; format: cell-based, human; settings: SKMU cells with reduced PPARα expression
From the text: (§5) SiRNA oligos specific to PPARα were designed and used to knock-down or reduce the expression level of PPARα in human SKMU cells following procedures known to those skilled in the art (Brummelkamp et al., 2002, Science, 296: 550-553). Four sets of siRNA oligo were originally designed using GenBank accession number S74349 (human peroxisome proliferator activated receptor alpha, cDNA; PPARα) as the template, and the software, Target Finder (Ambion, Austin, Tex.). […] The sequences for the two sets of siRNA correspond to 907 bp to 927 bp (SEQ ID NO: 21, 5′-[…] A) and 1106 bp to 1126 bp of the cDNA (SEQ ID NO: 22, 5′-[…] T) relative to the first nucleotide of the start codon. The oligos were chemically synthesized by Ambion Inc. (Austin, Tex.). The universal negative control siRNA oligo was purchased from Ambion.
(§6) Human primary skeletal muscle cells (hSKM, provided by Cambrex, Md.) were prepared the day before transfection at the density of 4.67×10^4 cells/per 60 mm dish (about 20% confluence). The cells were cultured at 37° C., 5% CO2 for 24 hrs with antibiotics-free SKGM medium (Cambrex, Md.). […]
(§7) Again, total RNA was isolated from the cells and real-time PCR was performed and the expression levels of target genes of interest, such as Pa9, 13 and 21, were quantitatively measured using the RT-PCR technique described in Example 1.

[4] = test system: Pa21 gene; assay: Pa21 gene expression in SKM cells with siRNA-reduced PPARα expression; format: cell-based, human; settings: SKMU cells with reduced PPARα expression
From the text: as §5, §6, §7

[5] = test system: Pa13 gene; assay: Pa13 gene expression by real-time RT-PCR in HuH7 hepatocytes; format: cell-based, human; settings: about 20-24 h, vehicle control = 100
From the text: as §1, §2, §3, §4

[6] = test system: Pa9 gene; assay: Pa9 gene expression in SKM cells with or without siRNA-reduced PPARα expression; format: cell-based, human
From the text: as §5
Human primary skeletal muscle cells (hSKM, provided by Cambrex, Md.) were prepared the day before transfection at the density of 4.67×10^4 cells/per 60 mm dish (about 20% confluence). The cells were cultured at 37° C., 5% CO2 for 24 hrs with antibiotics-free SKGM medium (Cambrex, Md.).
Transfection of siRNAs into the cultured cells was carried out following the manufacturer's instruction. Briefly, before the transfection, siPORT Amine (Ambion, Tex.) was first diluted with SKGM medium free of antibiotics and serum (10 μl siPORT/ml), followed by adding siRNA (50 nM) into the mixture. SKM cells (prepared in advance in multiple dishes) were transfected with 2 ml of the mixture for 4 hrs. Additional 8 ml of fresh SKGM medium (without antibiotics) were added into each dish to maximize cell growth and reduce potential cytotoxicity caused by the transfection reagent. As controls, the cells were also transfected with siPORT Amine alone or siPORT Amine plus universal negative control siRNA.
as §7

[7] = test system: Pa21 gene; assay: Pa21 gene expression by real-time RT-PCR in primary skeletal muscle cells; format: cell-based, human; settings: about 18-20 hours, vehicle control = 100
From the text: as §1, §2, §3, §4

Cc1cccc(Nc2cc(Cl)nc(SCC(=O)O)n2)c1C [Wy14643]
expression of murine FIAF [1]: increased | Pa13 (N26311) gene expression, Percentage ± SE (%) ([2]; 3 uM): 36.4 ± 6.4% | Pa13 (N26311) gene expression, Percentage ± SE (%) ([2]; 10 uM): 45.5 ± 10% | Pa13 (N26311) gene expression, Percentage ± SE (%) ([2]; 30 uM): 136.4 ± 38.7% | Pa13 (N26311) gene expression, Percentage ± SE (%) ([2]; 100 uM): 290.9 ± 54.1% | Pa13 (N26311) gene expression, Percentage ± SE (%) ([2]; 300 uM): 1672.7 ± 32% | induction of Pa13 gene expression (FIG. 6) [3]: no detectable induction | induction of Pa21 gene expression (FIG. 7) [4]: no detectable induction | Pa13 (N26311) gene expression, Percentage ± SE (%) ([5]; 3 uM): 70 ± 28% | Pa13 (N26311) gene expression, Percentage ± SE (%) ([5]; 10 uM): 100 ± 4% | Pa13 (N26311) gene expression, Percentage ± SE (%) ([5]; 30 uM): 140 ± 26.4% | Pa13 (N26311) gene expression, Percentage ± SE (%) ([5]; 100 uM): 130 ± 17.7% | Pa13 (N26311) gene expression, Percentage ± SE (%) ([5]; 300 uM): 720 ± 36.4% | increase of Pa9 gene expression ([6]; SKM cells with reduced gene expression of PPARα (siRNA), 16 hrs treatment): 2.35 fold | induction of Pa9 gene expression ([6]; SKM cells without reduced expression level of PPARα, 16 hrs treatment): 33.48 fold | induction of Pa9 gene expression (FIG. 5) ([6]; SKMU cells with reduced PPARα expression): decreased induction | Pa21 (H4960) gene expression, Percentage ± SE (%) ([7]; 3 uM): 130 ± 23.8% | Pa21 (H4960) gene expression, Percentage ± SE (%) ([7]; 10 uM): 200 ± 48.5% | Pa21 (H4960) gene expression, Percentage ± SE (%) ([7]; 30 uM): 310 ± 1.9% | Pa21 (H4960) gene expression, Percentage ± SE (%) ([7]; 100 uM): 560 ± 16.6% | Pa21 (H4960) gene expression, Percentage ± SE (%) ([7]; 300 uM): 2250 ± 11.7%
